Measured values reported in PubChem BioAssay (NCI).
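Five concentrations, 48 hours, 96-well plates. GI50: concentration for 50% inhibition of growth. TGI denotes the concentration required for complete inhibition of growth.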

Key:
Assay in all cases: inhibition of tumour cell growth, NCI panel, 48 h; in the data active = GI50 below about 0.43 µM; inactive = the rest
[1] = system: 786-0 renal
[2] = system: A498 renal
[3] = system: A549 NSCLC
[4] = system: ACHN renal
[5] = system: BT-549 breast
[6] = system: CAKI-1 renal
[7] = system: CCRF-CEM leukemia
[8] = system: COLO 205 colon
[9] = system: DU-145 prostate
[10] = system: EKVX NSCLC
[11] = system: HCC-2998 colon
[12] = system: HCT-116 colon
[13] = system: HCT-15 colon
[14] = system: HOP-62 NSCLC
[15] = system: HOP-92 NSCLC
[16] = system: HT29 colon
[17] = system: IGROV1 ovarian
[18] = system: K-562 leukemia
[19] = system: KM12 colon
[20] = system: M14 melanoma
[21] = system: MALME-3M melanoma
[22] = system: MCF7 breast
[23] = system: MDA-MB-231 breast
[24] = system: MDA-MB-435
[25] = system: MDA-MB-468 breast
[26] = system: NCI-H226 lung
[27] = system: NCI-H23 lung
[28] = system: NCI-H460 lung
[29] = system: NCI-H522 lung
[30] = system: OVCAR-3 ovarian
[31] = system: OVCAR-4 ovarian
[32] = system: OVCAR-5 ovarian
[33] = system: OVCAR-8 ovarian
[34] = system: PC-3 prostate
[35] = system: RPMI-8226 leukemia
[36] = system: RXF 393 renal
[37] = system: SF-268 CNS
[38] = system: SF-295 CNS
[39] = system: SF-539 CNS
[40] = system: SK-MEL-2 melanoma
[41] = system: SK-MEL-28 melanoma
[42] = system: SK-MEL-5 melanoma
[43] = system: SK-OV-3 ovarian
[44] = system: SN12C renal
[45] = system: SNB-19 CNS
[46] = system: SR leukemia
[47] = system: SW-620 colon
[48] = system: T-47D breast
[49] = system: U251 CNS
[50] = system: UACC-257 melanoma
[51] = system: UACC-62 melanoma
[52] = system: UO-31 renal

Cc1cc(=O)oc2cc(OCCCOc3ccc(/C=C/C(=O)Nc4ccccc4N)cc3)ccc12
6.7 µM: TGI [2]
5.81 µM: TGI [8]
2.35 µM: TGI [35]
3.27 µM: TGI [5]
inactive: GI50 [1] 3.13 µM | GI50 [2] 2.34 µM | GI50 [3] 3.31 µM | GI50 [4] 4.5 µM | GI50 [5] 0.923 µM | GI50 [6] 3.38 µM | GI50 [8] 2.14 µM | GI50 [9] 4.71 µM | GI50 [10] 3.5 µM | GI50 [11] 3.17 µM | GI50 [12] 2.24 µM | GI50 [13] 2.4 µM | GI50 [14] 4.93 µM | GI50 [15] 3.91 µM | GI50 [16] 4.8 µM | GI50 [17] 1.28 µM | GI50 [18] 0.817 µM | GI50 [19] 3.9 µM | GI50 [20] 3.16 µM | GI50 [21] 3.27 µM | GI50 [22] 0.702 µM | GI50 [23] 3.33 µM | GI50 [24] 4.42 µM | GI50 [25] 1.94 µM | GI50 [26] 2.45 µM | GI50 [27] 3.64 µM | GI50 [28] 1.79 µM | GI50 [29] 2.79 µM | GI50 [30] 2.51 µM | GI50 [31] 2.82 µM | GI50 [32] 4.34 µM | GI50 [33] 4.18 µM | GI50 [34] 3.07 µM | GI50 [36] 4.16 µM | GI50 [37] 1.95 µM | GI50 [38] 3.42 µM | GI50 [39] 2.22 µM | GI50 [40] 3.78 µM | GI50 [41] 3.6 µM | GI50 [42] 0.716 µM | GI50 [43] 5.29 µM | GI50 [44] 2.22 µM | GI50 [45] 3.72 µM | GI50 [46] 1.81 µM | GI50 [47] 3.6 µM | GI50 [48] 0.749 µM | GI50 [49] 5.49 µM | GI50 [50] 3.24 µM | GI50 [51] 2.79 µM | GI50 [52] 0.775 µM
1.91 µM: TGI [7]
> 100 µM: TGI [1] | TGI [3] | TGI [4] | TGI [6] | TGI [9] | TGI [10] | TGI [11] | TGI [12] | TGI [13] | TGI [14] | TGI [15] | TGI [16] | TGI [17] | TGI [18] | TGI [19] | TGI [20] | TGI [21] | TGI [22] | TGI [23] | TGI [24] | TGI [26] | TGI [27] | TGI [28] | TGI [29] | TGI [30] | TGI [31] | TGI [32] | TGI [33] | TGI [34] | TGI [36] | TGI [37] | TGI [38] | TGI [39] | TGI [40] | TGI [41] | TGI [43] | TGI [44] | TGI [45] | TGI [46] | TGI [47] | TGI [48] | TGI [49] | TGI [50] | TGI [51] | TGI [52]
8.14 µM: TGI [25]
active: GI50 [7] 0.31 µM | GI50 [35] 0.276 µM
2.06 µM: TGI [42]
